{"source": "paper PMC5632533", "about": "“Mechanisms of action and in vivo antibacterial efficacy assessment of five novel hybrid peptides derived from Indolicidin and Ranalexin against Streptococcus pneumoniae” (PeerJ, 2017)", "key": {"S. pneumoniae": {"tested_on": "S. pneumoniae", "assay": "Transmission electron microscopy (TEM) of treated cells", "type": "cell-based, Streptococcus pneumoniae", "settings": "10^8 CFU/ml in CAMHB; 8 × MIC (125 µg/ml; RN7-IN7 500 µg/ml); 1 h, 37 °C, 5% CO2", "method": "Bacteria were prepared for TEM according to the guidelines of the Electron Microscopy Unit at the Faculty of Medicine, University of Malaya. S. pneumoniae cultures were grown overnight on Columbia agar with 5% sheep blood and suspended in cationally adjusted Mueller-Hinton broth (CAMHB) at 10^8 CFU/ml. […] Cells in cationally adjusted Mueller-Hinton broth (CAMHB) were used as an untreated control. After an hour of incubation, the pneumococcal cells were centrifuged to discard the medium, washed thrice with 10 mM phosphate buffer saline at pH 7.3 and fixed overnight in 4% (v/v) glutaraldehyde. All samples were washed twice with cacodylate buffer, incubated for 2 h in osmium tetroxide buffer (OsO4 1: 1 cacodylate), washed twice with cacodylate buffer and then incubated overnight in cacodylate buffer. All the samples were washed with distilled water twice and incubated for 10 min with uranyl acetate. After this, all samples were then washed twice with distilled water and dehydrated in an ascending series of ethanol: 35% (10 min), 50% (10 min), 70% (10 min), 95% (15 min), and thrice in 100% ethanol (15 min). After dehydration, samples were incubated with propylene oxide (15 min), propylene oxide 1:1 Epon (1 h), propylene oxide 1:3 Epon (2 h) and finally incubated overnight with Epon. All the samples were embedded in agar 100 resin at 37 °C for 5 hr and maintained at 60 °C until viewing. Reichert Ultramicrotome copper grids 3.05 mm (300 square mesh) (Agar Scientific, Essex, United Kingdom) were used to prepare Ultrathin sections. Ethanol-based uranyl acetate and lead citrate were used to stain the samples for 5 min. Transmission electron microscope (Leo Libra 120) was used to capture the images."}, "Streptococcus pneumoniae": {"tested_on": "Streptococcus pneumoniae", "settings": "30 pneumococcal clinical isolates; earlier study; ref Jindal et al., 2015; cited from earlier work", "from_the_text": "Table 1 Sequences and physicochemical properties of the template and hybrid AMPs. | column: MIC^a || One of the advantageous alternatives to today’s antibiotics is antimicrobial peptides (AMPs) ([Deslouches et al., 2013]; [Sánchez-Vásquez et al., 2013]). AMPs are synthesized by almost all living beings as the first line of defense in their immune system against microbial infection. Many aspects favor AMPs over traditional antibiotics: a broad range of antimicrobial activity against pathogenic micro-organisms (including viruses, parasites, bacteria, and fungi), microbial pathogens are less efficient in developing resistance against AMPs, as killing take place in a short contact time and AMPs c ..."}}}
{"substance": "FLGGLIKWWPWRR-NH2 [RN7-IN6, hybrid peptide of ranalexin (residues 1-7) and indolicidin (residues 8-13)]", "values": [{"measurement": "TEM: detachment of cell wall from cell membrane", "setting": "S. pneumoniae", "result": "partial disconnection of the cell wall from the cell membrane"}, {"measurement": "MIC, minimum inhibitory concentration", "setting": "Streptococcus pneumoniae", "result": "7.81 to 15.62", "unit": "µg/mL"}]}
{"substance": "FLGGLIKWKWPWWPWRR-NH2 [RN7-IN10, hybrid peptide of ranalexin (residues 1-7) and indolicidin (residues 4-13)]", "values": [{"measurement": "MIC, minimum inhibitory concentration", "setting": "Streptococcus pneumoniae", "result": "7.81 to 15.62", "unit": "µg/mL"}]}
{"substance": "FLGGLIKKWPWWPWRR-NH2 [RN7-IN9, hybrid peptide of ranalexin (residues 1-7) and indolicidin (residues 5-13)]", "values": [{"measurement": "TEM: detachment of cell wall from cell membrane", "setting": "S. pneumoniae", "result": "partial disconnection of the cell wall from the cell membrane"}, {"measurement": "MIC, minimum inhibitory concentration", "setting": "Streptococcus pneumoniae", "result": "7.81 to 15.62", "unit": "µg/mL"}]}
{"substance": "FLGGLIKWPWWPWRR-NH2 [RN7-IN8, hybrid peptide of ranalexin (residues 1-7) and indolicidin (residues 6-13)]", "values": [{"measurement": "TEM: detachment of cell wall from cell membrane", "setting": "S. pneumoniae", "result": "partial disconnection of the cell wall from the cell membrane"}, {"measurement": "MIC, minimum inhibitory concentration", "setting": "Streptococcus pneumoniae", "result": "7.81 to 15.62", "unit": "µg/mL"}]}
